In this experiment the target is T1, human 11β-HSD1 (Homo sapiens, UniProt P28845).
T1 construct: host or cells: microsome fraction
Kind of experiment: Enzymatic 11beta-HSD1 test (SPA-based detection). The class given is biochemical. As to conditions: human 11β-HSD1 microsome fraction, [1,2-3H]-cortisone, NADPH, 37° C. 1 hour. Summed up:
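Human 11β-HSD1 microsomes (0.2 µg protein) converted [1,2-3H]-cortisone ([…]) for 1 h at 37 °C. The reaction buffer was HEPES/KCl/NaCl/MgCl2 with 0.25 mM NADPH, with compounds added in DMSO. The reaction was stopped with SPA beads, anti-cortisol monoclonal antibody and 0.01 mM SSR110887; after 1 h at room temperature, [3H]-cortisol was scintillation-counted.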

Our source for the IC50 values is patent US8895547B2, “Substituted phenyl-oxathiazine derivatives, method for producing them, drugs containing said compounds and the use thereof” (Sanofi, priority 2011, dated 2014).

A word on the IC50: it is the concentration that inhibits the measured activity by half. A higher IC50 goes with weaker potency.

T1 sequence (P28845 whole entry): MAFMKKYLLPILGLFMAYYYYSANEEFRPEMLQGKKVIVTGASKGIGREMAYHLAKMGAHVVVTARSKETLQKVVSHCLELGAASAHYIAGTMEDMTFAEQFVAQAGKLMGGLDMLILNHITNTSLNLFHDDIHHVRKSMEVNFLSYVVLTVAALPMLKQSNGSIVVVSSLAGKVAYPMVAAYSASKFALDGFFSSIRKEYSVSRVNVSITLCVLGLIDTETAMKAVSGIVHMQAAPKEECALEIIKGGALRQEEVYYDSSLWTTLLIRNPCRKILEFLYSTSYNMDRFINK

Molecule `CN(CCCc1ccc(C2C(C)(C)OC(N[C@@H](CCO)c3ccccc3F)=NS2(=O)=O)cc1)CC(F)F` (stereo partly drawn) [Example 116, (S)-3-[5-(4-{3-[(2,2-Difluoroethyl)-methyl-amino]-propyl}-phenyl)-6,6-dimethyl-4,4-dioxo-5,6-dihydro-4H-4lambda6-[1,4,3]oxathiazin-2-ylamino]-3-(2-fluorophenyl)-propan-1-ol] yielded a half-inhibitory concentration (IC50) of 5 nM. Regarding `CC1(C)OC(N[C@@H](CCO)c2ccccc2F)=NS(=O)(=O)C1c1ccc(-c2cc(Cl)sc2Cl)cc1` (stereo partly drawn) [Example 92, (S)-3-{5-[4-(2,5-Dichlorothiophen-3-yl)-phenyl]-6,6-dimethyl-4,4-dioxo-5,6-dihydro-4H-4lambda6-[1,4,3]oxathiazin-2-ylamino}-3-(2-fluorophenyl)-propan-1-ol], the midpoint of inhibition, the IC50, lay at 23 nM. Consider `C[C@H](NC1=NS(=O)(=O)[C@H](c2ccc(-c3cncc(C(N)=O)c3)cc2)C(C)(C)O1)c1ccccc1F` [Example 178, 5-(4-{(R)-2-[(S)-1-(2-fluorophenyl)-ethylamino]-6,6-dimethyl-4,4-dioxo-5,6-dihydro-4H-4lambda6-[1,4,3]oxathiazin-5-yl}-phenyl)-nicotinamide], for which the 50% inhibitory concentration (IC50) turned out to be 3 nM.

`CC1(C)OC(N[C@@H](CCO)c2ccccc2F)=NS(=O)(=O)C1c1ccc(Nc2ncccn2)cc1` (stereo partly drawn) [Example 130, (S)-3-{6,6-Dimethyl-4,4-dioxo-5-[4-(pyrimidin-2-ylamino)-phenyl]-5,6-dihydro-4H-4lambda6-[1,4,3]oxathiazin-2-ylamino}-3-(2-fluorophenyl)-propan-1-ol]: it took 20 nM to reach half-maximal inhibition (IC50). Turning to `CC(C)(C)c1ccc(C2C(C)(C)OC(N[C@@H](CCO)c3ccccc3F)=NS2(=O)=O)cc1` (stereo partly drawn) [Compound 58, (S)-3-[5-(4-tert-Butylphenyl)-6,6-dimethyl-4,4-dioxo-5,6-dihydro-4H-4lambda6-[1,4,3]oxathiazin-2-ylamino]-3-(2-fluorophenyl)propan-1-ol], half-maximal inhibition (IC50) required 21 nM. With `CN1CCN(c2ccc(-c3ccc(C4C(C)(C)OC(N[C@@H](CCO)c5ccccc5F)=NS4(=O)=O)cc3)cc2)CC1` (stereo partly drawn) [Example 114], the 50% inhibitory concentration (IC50) was 8 nM. `Cc1n[nH]cc1-c1ccc(C2C(C)(C)OC(N[C@@H](CCO)c3ccccc3F)=NS2(=O)=O)cc1` (stereo partly drawn) [Example 115, (S)-3-{6,6-Dimethyl-5-[4-(3-methyl-1H-pyrazol-yl)-phenyl]-4,4-dioxo-5,6-dihydro-4H-4lambda6-[1,4,3]oxathiazin-2-ylamino}-3-(2-fluorophenyl)-propan-1-ol] registered an IC50 of 5 nM. In turn, `CC1(C)OC(N[C@@H](CCO)c2ccccc2)=NS(=O)(=O)C1c1ccccc1Cl` (stereo partly drawn) [Example 15, (S)-3-[5-(2-Chlorophenyl)-6,6-dimethyl-4,4-dioxo-5,6-dihydro-4H-4lambda6-[1,4,3]oxathiazin-2-ylamino]-3-phenyl-propan-1-ol] displayed an IC50 of 11 nM. The result for `COc1ccc(C2C(C)(C)OC(N[C@@H](CCO)c3ccccc3)=NS2(=O)=O)cc1` (stereo partly drawn) [Example 6, (S)-3-[5-(4-Methoxy-phenyl)-6,6-dimethyl-4,4-dioxo-5,6-dihydro-4H-4lambda6-[1,4,3]oxathiazin-2-ylamino]-3-phenyl-propan-1-ol] reads 29 nM.

Molecule `C[C@H](NC1=NS(=O)(=O)C(c2ccc(C3CCN(C)CC3)cc2)C(C)(C)O1)c1ccccc1F` (stereo partly drawn) [Example 159, {6,6-Dimethyl-5-[4-(1-methyl-piperidin-4-yl)-phenyl]-4,4-dioxo-5,6-dihydro-4H-4lambda6-[1,4,3]oxathiazin-2-yl}-[(S)-1-(2-fluorophenyl)-ethyl]-amine] registered an IC50 of 108 nM. Take `CN1CCN(c2cnc(-c3ccc(C4C(C)(C)OC(N[C@@H](CCO)c5ccccc5F)=NS4(=O)=O)cc3)cn2)CC1` (stereo partly drawn) [Example 133, (S)-3-{6,6-Dimethyl-5-[4-(4-methyl-3,4,5,6-tetrahydro-2H-[1,2′]bipyrazinyl-5′-yl)-phenyl]-4,4-dioxo-5,6-dihydro-4H-4lambda6-[1,4,3]oxathiazin-2-ylamino}-3-(2-fluorophenyl)-propan-1-ol]: the midpoint of inhibition, the IC50, lay at 7 nM.

Take `CC1(C)OC(N[C@@H](CCO)c2ccccc2)=NS(=O)(=O)C1c1ccccc1` (stereo partly drawn) [Example 2, (S)-3-(6,6-Dimethyl-4,4-dioxo-5-phenyl-5,6-dihydro-4H-4lambda6-[1,4,3]oxathiazin-2-ylamino)-3-phenyl-propan-1-ol]: the IC50 is 17 nM. With `C[C@H](NC1=NS(=O)(=O)C(c2ccc(-c3ccnc(C#N)c3)nc2)C(C)(C)O1)c1ccccc1F` (stereo partly drawn) [Example 191, 5-{2-[(S)-1-(2-fluorophenyl)-ethylamino]-6,6-dimethyl-4,4-dioxo-5,6-dihydro-4H-4lambda6-[1,4,3]oxathiazin-5-yl}-[2,4′]bipyridinyl-2′-carbonitril], the IC50 was 460 nM. `C[C@H](NC1=NS(=O)(=O)C(C)(c2ccccc2)C(C)(C)O1)c1ccccc1F` (stereo partly drawn) [Compound 43, [(S)-1-(2-Fluorophenyl)ethyl]-(5,6,6-trimethyl-4,4-dioxo-5-phenyl-5,6-dihydro-4H-4lambda6-[1,4,3]oxathiazin-2-yl)amine]: the IC50 worked out at 7 nM.

For the molecule `C[C@H](NC1=NS(=O)(=O)C(c2ccc(-c3ccc4nc(N)sc4c3)cc2)C(C)(C)O1)c1ccccc1F` (stereo partly drawn) [Example 195, 6-(4-{2-[(S)-1-(2-fluorophenyl)-ethylamino]-6,6-dimethyl-4,4-dioxo-5,6-dihydro-4H-4lambda6-[1,4,3]oxathiazin-5-yl}-phenyl)-benzothiazol-2-ylamine], the concentration for half-maximal inhibition (IC50) is 40 nM. Take `C[C@H](NC1=NS(=O)(=O)C(c2ccc(C3CCN(C(C)(C)C)CC3)cc2)C(C)(C)O1)c1ccccc1F` (stereo partly drawn) [Example 171, {5-[4-(1-tert-Butyl-piperidin-4-yl)-phenyl]-6,6-dimethyl-4,4-dioxo-5,6-dihydro-4H-4lambda6-[1,4,3]oxathiazin-2-yl}-[(S)-1-(2-fluorophenyl)-ethyl]-amine]: the IC50 is 108 nM. With `CC1(C)OC(N[C@@H](CCO)c2ccccc2)=NS(=O)(=O)C1(C)c1cccc(N2CCCC2)c1` (stereo partly drawn) [Compound 38, (S)-3-Phenyl-3-[5,6,6-trimethyl-4,4-dioxo-5-(3-pyrrolidin-1-ylphenyl)-5,6-dihydro-4H-4lambda6-[1,4,3]oxathiazin-2-ylamino]propan-1-ol], the IC50 was 19 nM.

In turn, `CC1(C)OC(N[C@@H](CCO)c2ccccc2F)=NS(=O)(=O)C1c1ccc(-c2ccccc2)cc1` (single isomer, unassigned) [Example 70] yielded an IC50 of 19 nM. In the case of `C[C@H](NC1=NS(=O)(=O)C(c2ccccc2)C(C)(C)O1)c1ccccc1F` (stereo partly drawn) [Example 31, (6,6-Dimethyl-4,4-dioxo-5-phenyl-5,6-dihydro-4H-4lambda6-[1,4,3]oxathiazin-2-yl)-[(S)-1-(2-fluoro-phenyl)-ethyl]-amine], the IC50 is 10 nM. With `CN1CCN(Cc2ccc(C3C(C)(C)OC(N[C@@H](CCO)c4ccccc4F)=NS3(=O)=O)cc2)CC1` (stereo partly drawn) [Example 136, (S)-3-{6,6-Dimethyl-5-[4-(4-methyl-piperazin-1-ylmethyl)-phenyl]-4,4-dioxo-5,6-dihydro-4H-4lambda6-[1,4,3]oxathiazin-2-ylamino}-3-(2-fluoro-phenyl)-propan-1-ol], it took 63 nM to reach half-maximal inhibition (IC50). The molecule `C[C@H](NC1=NS(=O)(=O)C(C)(c2cccc(-c3ccccc3)c2)C(C)(C)O1)c1ccccc1F` (stereo partly drawn) [Example 73, (5-Biphenyl-3-yl-5,6,6-trimethyl-4,4-dioxo-5,6-dihydro-4H-4lambda6-[1,4,3]oxathiazin-2-yl)-[(S)-1-(2-fluorophenyl)-ethyl]-amine] came in with a half-maximal inhibitory concentration (IC50) of 28 nM. Take `Cc1ccccc1-c1ccc(C2(C)C(C)(C)OC(N[C@@H](CCO)c3ccccc3F)=NS2(=O)=O)cc1` (stereo partly drawn) [Example 79, (S)-3-(2-Fluorophenyl)-3-[5,6,6-trimethyl-5-(2′-methyl-biphenyl-4-yl)-4,4-dioxo-5,6-dihydro-4H-4lambda6-[1,4,3]oxathiazin-2-ylamino]-propan-1-ol]: the IC50 was 8 nM. In turn, `C[C@H](NC1=NS(=O)(=O)[C@H](c2ccc(-c3ccnc(C#N)c3)cc2)C(C)(C)O1)c1ccccc1F` [Example 187, 4-(4-{(R)-2-[(S)-1-(2-fluorophenyl)-ethylamino]-6,6-dimethyl-4,4-dioxo-5,6-dihydro-4H-4lambda6-[1,4,3]oxathiazin-5-yl}-phenyl)-pyridine-2-carbonitrile] had a concentration for half-maximal inhibition (IC50) of 5 nM. Molecule `C[C@H](NC1=NS(=O)(=O)C(c2ccc(N3CCNCC3)cc2)C(C)(C)O1)c1ccccc1F` (stereo partly drawn) [Example 167, [6,6-Dimethyl-4,4-dioxo-5-(4-piperazin-1-yl-phenyl)-5,6-dihydro-4H-4lambda6-[1,4,3]oxathiazin-2-yl]-[(S)-1-(2-fluorophenyl)-ethyl]-amine] came in with an IC50 of 122 nM. `CC(C)(O)c1ccc(C2C(C)(C)OC(N[C@@H](CCO)c3ccccc3F)=NS2(=O)=O)cc1` (stereo partly drawn) [Example 153, (S)-3-(2-fluorophenyl)-3-{5-[4-(1-hydroxy-1-methyl-ethyl)-phenyl]-6,6-dimethyl-4,4-dioxo-5,6-dihydro-4H-4lambda6-[1,4,3]oxathiazin-2-ylamino}-propan-1-ol] came in with an IC50 of 48 nM. Regarding `C[C@H](NC1=NS(=O)(=O)C(c2ccc(C(C)(C)O)cc2)C(C)(C)O1)c1ccccc1F` (stereo partly drawn) [Example 162, 2-(4-{2-[(S)-1-(2-fluorophenyl)-ethylamino]-6,6-dimethyl-4,4-dioxo-5,6-dihydro-4H-4lambda6-[1,4,3]oxathiazin-5-yl}-phenyl)-propan-2-ol], it took 52 nM to reach half-maximal inhibition (IC50). Turning to `C[C@H](NC1=NS(=O)(=O)C(C)(c2cccc(Br)c2)C(C)(C)O1)c1ccccc1F` (stereo partly drawn) [Example 30, [5-(3-Bromophenyl)-5,6,6-trimethyl-4,4-dioxo-5,6-dihydro-4H-4lambda6-[1,4,3]oxathiazin-2-yl]-[(S)-1-(2-fluorophenyl)-ethyl]-amine], inhibition was half-maximal at 7 nM (IC50).
